{"source": "patent US5856517A", "about": "“Substituted pyrroles” (Hoffmann-La Roche Inc., priority 1997, dated 1999)", "key": {"[1]": {"tested_on": "epithelial breast carcinoma cell line MDAMB-435", "assay": "Antiproliferative activity, growth of MDAMB-435 cells (MTT)", "type": "cell-based", "details": "Homo sapiens, MDA-MB-435, 120 h, MDAMB435, day 5 post-drug addition, 0.1% DMSO, * = average of two separate experiments", "method": "(§1) The epithelial breast carcinoma cell line, MDAMB-435, and the colon carcinoma cell line, SW480, were purchased from ATCC (American Type Cell Culture Collection) and were grown in culture in medium as recommended by ATCC. For analysis of the effect of various compounds on growth of these cells, the cells were plated at a concentration of 1500 cells/well in a 96 well tissue culture plate (\"test plate\"). The day after the cells were plated, the compounds to be analyzed were dissolved in 100% DMSO (dimethyl sulfoxide) to yield at 10 mM stock solution. Each compound was diluted in H2 O to 1 mM and was added to triplicate wells in the first row of a 96 well master plate which contains medium to yield a final concentration of 40 μM. The compounds were then serially diluted in medium in the \"master plate\". The diluted compound(s) were then transferred to test plates containing cells. A row of vehicle \"control cells\" received DMSO. The final concentration of DMSO in each well was 0.1%. At day 5 post-drug addition, the plates containing MDA-MB435 cells were analyzed as follows. Plates containing SW480 cells were analyzed at day 7 post drug addition as follows.\n(§2) MTT (3-(4-5methylthiazole-2-yl)-2,5-diphenyl tetrazolium bromide; thiazolyl blue) was added to each well to yield a final concentration of 1 mg/ml. The plate was then incubated at 37° C. for 21/2-3 hours. The MTT containing medium was then removed and 50 μl of 100% ethanol was added to each well to dissolve the formazan. The absorbences were then read using an automated plate reader (Bio-tek microplate reader). IC50 's were calculated using the Reed and Munsch equation, see Am. J. Hygiene Vol. 27 pgs. 493-497, 1938."}, "[2]": {"tested_on": "colon carcinoma cell line SW480", "assay": "Antiproliferative activity, growth of SW480 cells (MTT)", "type": "cell-based", "details": "Homo sapiens, 168 h, day 7 post drug addition, 0.1% DMSO, * = average of two separate experiments", "method": "as §1, §2"}}}
{"smiles": "Cn1cc(C2=C(c3cn(C)c4cc(C(N)=O)ccc34)C(=O)NC2=O)c2ccccc21", "note": "[Ex 6, 1-Methyl-3-[4-(1-methyl-1H-indol-3-yl)-2,5-dioxo-2,5-dihydro-1H-pyrrol-3-yl]-1H-indole-6-carboxylic acid amide]", "values": [{"measurement": "IC50", "setting": "[1]", "value": 700, "unit": "nM"}]}
{"smiles": "Cn1cc(C2=C(c3cn(C)c4cc(C=O)ccc34)C(=O)NC2=O)c2ccccc21", "note": "[Ex 4b, 1-methyl-3-[4-(1-methyl-1H-indol-3-yl)-2,5-dioxo-2,5-dihydro-1H-pyrrol-3-yl]-1H-indole-6-carboxaldehyde]", "values": [{"measurement": "IC50", "setting": "[2]", "value": 54, "unit": "nM"}, {"measurement": "IC50", "setting": "[1]", "value": 32, "unit": "nM"}]}
{"smiles": "COC(=O)c1ccc2c(C3=C(c4cn(C)c5ccccc45)C(=O)NC3=O)cn(C)c2c1", "note": "[Ex 4a, 1-methyl-3-[4-(1-methyl-1H-indol-3-yl)-2,5-dioxo-2,5-dihydro-1H-pyrrol-3-yl]-1H-indole-6-carboxylic acid methyl ester]", "values": [{"measurement": "IC50", "setting": "[2]", "value": 10, "unit": "nM"}, {"measurement": "IC50", "setting": "[1]", "value": 10, "unit": "nM"}]}
{"smiles": "CC(=O)OCc1ccc2c(C3=C(c4cn(C)c5ccccc45)C(=O)NC3=O)cn(C)c2c1", "note": "[Ex 3, Acetic acid 1-methyl-3-[4-(1-methyl-1H-indol-3-yl)-2,5-dioxo-2,5-dihydro-1H-pyrrol-3-yl]-1H-indol-6-yl methyl ester]", "values": [{"measurement": "IC50", "setting": "[2]", "value": 830, "unit": "nM"}, {"measurement": "IC50", "setting": "[1]", "value": 300, "unit": "nM"}]}
{"smiles": "COCc1ccc2c(C3=C(c4cn(C)c5ccccc45)C(=O)NC3=O)cn(C)c2c1", "note": "[Ex 4c, 3-(6-Methoxymethyl-1-methyl-1H-indol-3-yl)-4-(1-methyl-1H-indol-3-yl)-pyrrole-2,5-dione]", "values": [{"measurement": "IC50", "setting": "[2]", "value": 110, "unit": "nM"}, {"measurement": "IC50", "setting": "[1]", "value": 70, "unit": "nM"}]}
{"smiles": "Cn1cc(C2=C(c3cn(C)c4cc(C#N)ccc34)C(=O)NC2=O)c2ccccc21", "note": "[Ex 1, 1-methyl-3-[4-(1-methyl-1H-indol-3-yl)-2,5-dioxo-2,5-dihydro-1H-pyrrol-3-yl]-1H-indole-6-carbonitrile]", "values": [{"measurement": "IC50", "setting": "[2]", "value": 8, "unit": "nM"}, {"measurement": "IC50", "setting": "[1]", "value": 30, "unit": "nM"}]}
{"smiles": "Cn1cc(C2=C(c3cn(C)c4cc(CO)ccc34)C(=O)NC2=O)c2ccccc21", "note": "[Ex 5, 3-(6-hydroxymethyl-1-methyl-1H-indol-3-yl)-4-(1-methyl-1H-indol-3-yl)pyrrole-2,5-dione]", "values": [{"measurement": "IC50", "setting": "[2]", "value": 350, "unit": "nM"}, {"measurement": "IC50", "setting": "[1]", "value": 420, "unit": "nM"}]}
